Results published in US11602514B2, “Medicament having anti-inflammatory bowel disease function, and preparation method therefor and application thereof” (SUZHOU PHARMAVAN CO., LTD, priority 2018, dated 2023).
“Also recorded” adds a separate entry of the source.

Tests used:
[1] = system: COX2 protein expressed by mouse macrophages RAW264.7; experiment: COX2 protein expression in LPS-induced RAW264.7 macrophages (blot); type: cell-based; conditions: FIG. 8
Procedure: (§1) Effects of myricanol derivatives on the expression of inflammatory factors such as IL-6, TNF-α, PEG2 secreted by a mouse macrophage cell strain RAW 264.7 induced by bacterial lipopolysaccharide (hereinafter referred to as LPS) stimulus: A pre-prepared cell suspension was inoculated in a 96-well plate at 15000 cells/well and 100 μl/well and cultured overnight in an incubator with 5% CO2 at 37° C. At 80% cell confluence, the original culture medium was discarded, and each well was added with 100 μl of prepared drug solution to be tested with a different concentration, cultured for 1 h, and then added with a LPS solution, where the final concentration of LPS in the culture system was 100 ng/mL. Each concentration was set with 3 parallel wells, and a cell control group (no drug and no solvent) and a blank medium control group (no cells, a well for zero adjustment) were set. They were cultured for another 24 h. Cell culture supernatants were aspirated, and an R&D ELISA detection kit (M6000B; MTA00B; VAL601) was used for detecting the expression of the inflammatory factors such as IL-6, TNF-α, and PEG2 in each group. Cell proteins were collected, and a […] method was used for detecting COX-2 protein expression in each group.

[2] = acute toxicity, single oral dose; type: in vivo; conditions: both sexes, SD, rat, in vivo, po; single intragastric administration; read-out: MTD (tolerance to acute toxicity of a single dosage)
Source text: Trial method: 30 SD rats, half male and half female, were used. The average weight was 160-200 g for female rats and 180-220 g for male rats when grouped. An individual weight should be within ±20% of the average weight. Before the test, animals needed to accommodate to the environment for at least 5 days, and healthy rats (female rats should be not pregnant) were selected as test animals. Matter detected during the accommodation period mainly was: whether the rats were consistent with quality indexes required in the order; detection of general conditions; and whether the weight was within the weight range required by the test. Unqualified abnormal animals were excluded from the test. A single dosage was orally administered to rats at a low, medium, or high dose. […] A control group was set with the oral administration of the same volume of solvent.
The rats were observed about 0-2 h and 4-6 h after each administration. If a toxicity symptom occurs, the rats may be observed more times. (2) Gross anatomical observation: on the 14th day of the test, all surviving rats in each group were dissected and observed, and for administration sites and gross dissection, abnormal organs and tissues which were observed and found to be potentially related to test samples were photographed and recorded. (3) Disposal of dying animals: status of rats and observation time were recorded, and their weights were measured. (4) Disposal of dead animals: the time of death or when a rat was found dead were recorded. The rat was measured for weight before quickly dissected for gross observation and speculated for a cause of death.

[3] = system: IL-6 secreted by mouse macrophages RAW264.7 induced by LPS; experiment: IL-6 secreted by LPS-induced RAW264.7 macrophages (ELISA); type: cell-based; conditions: LPS 100 ng/mL, 24 h; FIG. 5
Procedure: as §1

[4] = system: IBD model induced by 2.5% TNBS; experiment: TNBS-induced rat in vivo model of IBD; parameters: species or system SD rats; conditions: 6 days; for injuries of colorectal ulcers (anatomical and pathological HE): FIGS. 20 and 21
Procedure: Test method: female SPF-grade SD rats each with a weight of 180-200 g were subjected to adaptive feeding for 5-7 days, and then started to be modeled. At the time of modeling, the rats were anesthetized, a pre-labeled cat catheter was inserted through the anus into the colon for 8 cm, 250 μL of 2.5% (wt/vol) TNBS solution was slowly injected into the cavity of the colon, the rat was inverted for 1 min, and then the catheter was slowly removed from the intestine. The rat was hold with its head down towards for 1 min and then put back to a cage. Rats in a blank group were administered with the same volume of normal saline. On the second day of modeling, i.e., D1, the medicament was administered through intragastric administration for 6 continuous days.
Detection indexes: the weight of each group of animals was observed and recorded every day, and feces of each animal were collected at the beginning of experiments to detect occult blood in the feces. If obvious blood in the feces cannot be determined, an occult blood detection kit was used for confirming the occult blood, and the result was recorded on an experimental record paper and photographed. After the end of the experiments, the fecal traits, occult blood, and weight change rate of each animal were scored, and the scores were added to give a DAI score for each animal. Colorectal tissue samples of the animals were collected and a wet weight was weighted for the subsequent pathological detection.

[5] = system: PGE2 secreted by mouse macrophages RAW264.7 induced by LPS; experiment: PGE2 secreted by LPS-induced RAW264.7 macrophages (ELISA); type: cell-based; conditions: for PGE2: LPS alone 1154.90 ± 84.20, control −407.37 ± 57.67
Procedure: as §1

[6] = system: acute IBD model induced by 5% DSS; experiment: DSS-induced mouse in vivo model of IBD; parameters: species or system C57BL/6 mice; conditions: tail vein 5, 2.5, 1.25 mg/kg, 4 days
Procedure: Female SPF-grade C57BL/6 mice each with an age of 6 to 8 weeks were subjected to adaptive feeding for 3-7 days, and then fed with 5% aqueous solution of DSS in a free water-drinking manner (day0). The original aqueous solution of DSS was replaced with a fresh aqueous solution of DSS every 2 days. After the mice freely drank the aqueous solution of DSS for 7 days (day7), they were fed with fresh purified water. After 4 days of modeling, medicament was administered on the 5th day of modeling. Animals were administered via tail veins with 5 mg/kg, 2.5 mg/kg, and 1.25 mg/kg of the medicament for treatment. The animals were administered with the medicament for 4 continuous days, and then observed for 1 day. The experiments were terminated 24 h after the last administration.
Detection indexes: the weight of each group of animals was observed and recorded every day, and feces of each animal were collected to detect occult blood in the feces. If obvious blood in the feces cannot be determined, an occult blood detection kit was used for confirming the occult blood, and the result was recorded on an experimental record paper and photographed. When the experiments ended, animal serum was collected to detect the expression of IL-6 in the blood. At the same time, the fecal traits, occult blood, and weight change rate of each animal were scored, and the scores were added to give a DAI score for the animal. Colorectal tissue samples of the animals were collected for the subsequent pathological detection and detection of MPO in the tissue.

Compound: COc1c2cc(c(O)c1OC)CCCCC(OS(=O)(=O)O)CCc1ccc(O)c-2c1 (centres unmarked) [compound H, 11-sulfonyloxy myricanol]
- COX2 protein expression inhibition compared with myricanol [1]: better inhabitation effects than myricanol
- inhibition of protein expression of IBD-related COX2 [1]: can inhibit
- MTD at 14 days [2]: > 1500 mg/kg
- inhibition of LPS-induced IL-6 secretion of RAW264.7 cells [3]: very strong effects of inhibiting
- colorectal wet weight (edema) ([4]; 12.5 mg/kg intragastric, no statistical difference, FIG. 15): trend of reducing the edema
- area of colorectal ulcers ([4]; oral 12.5 mg/kg, FIG. 16): significantly reducing the area of colorectal ulcers
- area of colorectal ulcers, efficacy compared with 5-ASA ([4]; oral 12.5 mg/kg, FIG. 16): slightly better efficacy than 5-aminosalicylic acid (5-ASA)
- colorectal inflammation, efficacy compared with 5-ASA ([4]; oral 12.5 mg/kg, FIG. 17): substantially same efficacy as 5-aminosalicylic acid (5-ASA)
- inflammation score of colorectal pathological HE ([4]; oral 12.5 mg/kg, FIG. 17, 12.5 mg/kg): significantly reducing the level of colorectal inflammation; also recorded: significantly improving the score of colorectal inflammation
- colorectal total injuries, efficacy compared with 5-ASA ([4]; oral 12.5 mg/kg, FIG. 18): substantially same efficacy as 5-aminosalicylic acid (5-ASA)
- score of total injuries of colorectal pathological HE ([4]; oral 12.5 mg/kg, FIG. 18, 12.5 mg/kg): significantly reducing the level of colorectal total injures; also recorded: significantly reducing the degree of overall colorectal injuries
- injury score of colorectal ulcers, efficacy compared with 5-ASA ([4]; oral 12.5 mg/kg, FIG. 19): slightly better efficacy than 5-aminosalicylic acid (5-ASA)
- score of ulcerative injuries of colorectal pathological HE ([4]; oral 12.5 mg/kg, FIG. 19, 12.5 mg/kg): significantly reducing the injury score of colorectal ulcers; also recorded: significantly reducing the severity of injuries
- injuries of colorectal ulcers (anatomical and pathological HE) ([4]; oral 12.5 mg/kg): effect of reducing injuries of colorectal ulcers
- injuries of colorectal ulcers (anatomical and pathological HE) ([4]; oral 25 mg/kg): effect of reducing injuries of colorectal ulcers
- dose dependence of the activity for inhibiting PGE2 ([5]; FIG. 9): well dose-dependent
- inhibition of PGE2 secreted by RAW264.7 induced by LPS ([5]; LPS 100 ng/mL, 24 h, FIGS. 7 and 9): significant effect of inhibiting PGE2; also recorded: strong ability to inhibit
- PGE2 ([5]; LPS + 10 μM): 804.30 ± 18.46 pg/mL
- PGE2 ([5]; LPS + 20 μM): 604.66 ± 97.52 pg/mL
- PGE2 ([5]; LPS + 30 μM): 448.16 ± 55.26 pg/mL
- PGE2 ([5]; LPS + 40 μM): 289.30 ± 109.41 pg/mL
- PGE2 ([5]; LPS + 60 μM): -82.01 ± 357.30 pg/mL
- PGE2 ([5]; LPS + 80 μM): -338.14 ± 138.40 pg/mL
- PGE2 inhibition compared with myricanol ([5]; dose of 20 μM, FIG. 9): better inhabitation effect than myricanol
- weight change rate (weight loss trend) ([6]; FIG. 10 (5 mg/kg vs 5% DSS p<0.01)): slowing the weight loss trend
- level of IL-6 protein in serum ([6]; FIG. 11): significant anti-inflammatory effect
- DAI score ([6]; FIG. 12): significant effect of reducing the DAI scores
- colorectal pathology (injuries of intestinal mucosa) ([6]; FIG. 13): significant effect of repairing injuries of intestinal mucosa
- colorectal MPO (oxidative injuries) ([6]; FIG. 14): a certain effect of improving oxidative injuries
